Values after ≈ are worked out from the molar mass of the structure shown. Active and inactive are the calls of the source. The rule behind the calls is not given here.
Key:
[1] = target: T1, Inosine-5'-monophosphate dehydrogenase (Bacillus anthracis, UniProt A0A6L8P2U9); assay: Non-competitive inhibition of Bacillus anthracis IMPDH preincubated for 10 mins before IMP substrate addition by spectrophotometry
[2] = target: T2, Inosine-5'-monophosphate dehydrogenase (Cryptosporidium parvum, UniProt Q8T6T2); assay: Un-competitive inhibition of Cryptosporidium IMPDH preincubated for 10 mins before IMP substrate addition by spectrophotometry
T2 sequence (Q8T6T2 whole entry): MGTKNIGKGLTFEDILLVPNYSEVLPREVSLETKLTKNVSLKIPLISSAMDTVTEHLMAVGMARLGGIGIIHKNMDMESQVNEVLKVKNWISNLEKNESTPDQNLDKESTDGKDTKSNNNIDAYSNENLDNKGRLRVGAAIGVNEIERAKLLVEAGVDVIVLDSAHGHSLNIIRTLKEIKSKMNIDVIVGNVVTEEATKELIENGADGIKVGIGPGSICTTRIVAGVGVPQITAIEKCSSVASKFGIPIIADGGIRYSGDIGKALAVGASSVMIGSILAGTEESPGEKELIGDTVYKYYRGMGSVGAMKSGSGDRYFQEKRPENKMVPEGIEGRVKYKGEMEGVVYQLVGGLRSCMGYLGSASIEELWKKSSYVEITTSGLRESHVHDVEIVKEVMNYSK

[3] = target: T2, Inosine-5'-monophosphate dehydrogenase; assay: Competitive inhibition of Cryptosporidium IMPDH preincubated for 10 mins before NAD+ substrate addition by spectrophotometry
[4] = target: T1, Inosine-5'-monophosphate dehydrogenase; assay: Non-competitive inhibition of Bacillus anthracis IMPDH preincubated for 10 mins before NAD+ substrate addition by spectrophotometry
[5] = Selectivity ratio of IC50 for Bacillus anthracis IMPDH to IC50 for Cryptosporidium IMPDH
[6] = target: T2, Inosine-5'-monophosphate dehydrogenase; assay: Inhibition of Cryptosporidium IMPDH preincubated for 10 mins before substrate addition by spectrophotometry
[7] = target: T2, Inosine-5'-monophosphate dehydrogenase; assay: Non-competitive inhibition of Cryptosporidium IMPDH preincubated for 10 mins before NAD+ substrate addition by spectrophotometry
[8] = target: T1, Inosine-5'-monophosphate dehydrogenase; assay: Inhibition of Bacillus anthracis IMPDH preincubated for 10 mins before substrate addition by spectrophotometry
[9] = Antibacterial activity against Bacillus anthracis Sterne 7702; type: functional, Bacillus anthracis str. Sterne
[10] = Antibacterial activity against Bacillus anthracis Sterne 7702 in presence of 0.01 % guanine; type: functional, Bacillus anthracis str. Sterne
[11] = system: Staphylococcus aureus; assay: Antibacterial activity against Staphylococcus aureus NCTC 8325; type: functional
[12] = system: Staphylococcus aureus; assay: Antibacterial activity against Staphylococcus aureus NCTC 8325 in presence of 0.01 % guanine; type: functional
[13] = system: Staphylococcus aureus; assay: Antibacterial activity against Staphylococcus aureus ATCC 13709 Smith; type: functional
[14] = system: Staphylococcus aureus; assay: Antibacterial activity against Staphylococcus aureus ATCC 13709 Smith in presence of 0.01 % guanine; type: functional
[15] = system: Listeria monocytogenes; assay: Antibacterial activity against Listeria monocytogenes 10403S; type: functional
[16] = system: Bacillus anthracis str. Sterne; assay: Ratio of MIC for Bacillus anthracis Sterne 7702 in presence of 0.01 % guanine to MIC for Bacillus anthracis Sterne 7702; type: functional
[17] = system: Staphylococcus aureus; assay: Ratio of MIC for Staphylococcus aureus NCTC 8325 in presence of 0.01 % guanine to MIC for Staphylococcus aureus NCTC 8325; type: functional
[18] = system: Staphylococcus aureus; assay: Ratio of MIC for Staphylococcus aureus ATCC 13709 Smith in presence of 0.01 % guanine to MIC for Staphylococcus aureus ATCC 13709 Smith; type: functional
[19] = system: Listeria monocytogenes; assay: Ratio of MIC for Listeria monocytogenes 10403S in presence of 0.01 % guanine to MIC for Listeria monocytogenes 10403S; type: functional
[20] = system: Listeria monocytogenes; assay: Antibacterial activity against Listeria monocytogenes 10403S in presence of 0.01 % guanine; type: functional

T1 sequence (A0A6L8P2U9 whole entry): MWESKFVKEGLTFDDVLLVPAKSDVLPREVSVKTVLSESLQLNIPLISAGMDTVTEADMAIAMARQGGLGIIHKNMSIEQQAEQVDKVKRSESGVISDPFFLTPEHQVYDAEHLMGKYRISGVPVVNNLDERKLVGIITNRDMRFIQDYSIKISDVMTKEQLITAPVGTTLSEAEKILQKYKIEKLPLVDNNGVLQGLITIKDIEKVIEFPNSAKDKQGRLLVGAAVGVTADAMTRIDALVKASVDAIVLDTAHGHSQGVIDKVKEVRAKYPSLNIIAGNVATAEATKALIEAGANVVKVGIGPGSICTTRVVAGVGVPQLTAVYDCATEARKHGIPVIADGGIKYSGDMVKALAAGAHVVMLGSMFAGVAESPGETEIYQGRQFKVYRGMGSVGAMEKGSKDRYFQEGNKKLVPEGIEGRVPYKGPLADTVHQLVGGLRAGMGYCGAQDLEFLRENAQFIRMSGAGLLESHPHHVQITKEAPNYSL

## C[C@H](Oc1cccc2ccccc12)C(=O)Nc1ccc2oc(-c3ccncc3)nc2c1
[1]
  Ki: 24 nM
[2]
  Ki: 64 nM
[3]
  Ki: 13 nM
[4]
  Ki: 17 nM

## C=C(C)c1cccc(C(C)(C)NC(=O)Nc2ccc(Cl)c(C(F)(F)F)c2)c1
[5]
  Ratio IC50: < 0.5

## O=C(Nc1ccc(Cl)cc1)C(Oc1cccc2ccccc12)C1CC1 (centres undefined)
[6]
  IC50: > 5000 nM
[5]
  Ratio IC50: < 0.5

## C/C(=N\O)c1cccc(C(C)(C)NC(=O)Nc2ccc(Br)cc2)c1
[6]
  IC50: 9 nM
[5]
  Ratio IC50: < 0.5
[1]
  Ki: 48 nM
[2]
  Ki: 12 nM
[7]
  Ki: 15 nM
[4]
  Ki: 2.3 nM

## CC(C)C(Oc1cccc2ccccc12)C(=O)Nc1ccc(Cl)cc1 (centres undefined)
[8]
  IC50: 120 nM
[6]
  IC50: 700 nM
[5]
  Ratio IC50: < 0.5

## C/C(=N\O)c1cccc(C(C)(C)NC(=O)Nc2ccc(Cl)c(C(F)(F)F)c2)c1
[8]
  IC50: 2 nM
[5]
  Ratio IC50: < 0.5

## C/C(=N\O)c1cccc(C(C)(C)NC(=O)Nc2ccc(Cl)c(C(N)=O)c2)c1
[1]
  Ki: 1.5 nM
[2]
  Ki: 2 nM
[7]
  Ki: 6 nM
[4]
  Ki: 8 nM

## C[C@H](Nc1cccc(Cl)c1Cl)C(=O)Nc1ccc2oc(-c3ccncc3)nc2c1
[8]
  IC50: 5 nM
[5]
  Ratio IC50: < 0.5

## CC(Oc1ccc(-c2ccccc2)cc1)C(=O)Nc1ccc(Cl)cc1 (centres undefined)
[6]
  IC50: 1100 nM
[5]
  Ratio IC50: < 0.5

## C[C@H](C(=O)Nc1ccc2oc(-c3ccncc3)nc2c1)c1ccccc1
[5]
  Ratio IC50: < 0.5

## Cn1nc(CC(=O)Nc2ccc3oc4c(c3c2)CCCC4)c2ccccc2c1=O
[1]
  Ki: 12 nM
[2]
  Ki: 5 nM
[7]
  Ki: 49 nM
[4]
  Ki: 500 nM

## C[C@H](Oc1cccc(Cl)c1Cl)C(=O)Nc1cccc(NC(=O)c2ccncc2)c1
[8]
  IC50: 300 nM
[5]
  Ratio IC50: < 0.5

## CC(=O)c1cccc(CNC(=O)Nc2ccc(Cl)cc2)c1
[8]
  IC50: 1200 nM
[6]
  IC50: > 5000 nM
[5]
  Ratio IC50: < 0.5

## CCN(CC)C(=O)c1ccc(NC(=O)NC(C)(C)c2cccc(/C(C)=N/O)c2)cc1Cl
[9]
  MIC: 0.5 µM (≈ 0.222 µg/mL)
[10]
  MIC: > 30 µM
[11]
  MIC: 0.9 µM (≈ 0.4 µg/mL)
[12]
  MIC: > 30 µM
[13]
  MIC: 4 µM (≈ 1.78 µg/mL)
[14]
  MIC: > 30 µM
[15]
  MIC: 15 µM (≈ 6.67 µg/mL)
[16]
  Ratio: 8
[17]
  Ratio: 8
[18]
  Ratio: 8
[19]
  Ratio: 8

## C[C@@H](Oc1cc[n+]([O-])c2ccccc12)c1cn(-c2ccc(Cl)cc2)nn1
[1]
  Ki: 38 nM
[2]
  Ki: 5 nM
[9]
  MIC: 1 µM (≈ 0.367 µg/mL)
[10]
  MIC: 8 µM
[11]
  MIC: 1.8 µM (≈ 0.66 µg/mL)
[12]
  MIC: > 30 µM
[13]
  MIC: 2 µM (≈ 0.734 µg/mL)
[14]
  MIC: 16 µM
[15]
  MIC: 7.5 µM (≈ 2.75 µg/mL)
[20]
  MIC: inactive
[16]
  Ratio: 8
[17]
  Ratio: 8
[18]
  Ratio: 8
[19]
  Ratio: 8
[3]
  Ki: 5 nM
[4]
  Ki: 58 nM

## C/C(=N\O)c1cccc(C(C)(C)NC(=O)Nc2ccc(Cl)c(C(=O)N3CCN(C)CC3)c2)c1
[6]
  IC50: 330 nM
[5]
  Ratio IC50: < 0.5

## O=C(COc1cccc2ccccc12)Nc1ccc(Br)cc1
[8]
  IC50: 760 nM
[6]
  IC50: > 5000 nM
[5]
  Ratio IC50: < 0.5

## CC(Oc1cccc([N+](=O)[O-])c1Cl)C(=O)Nc1ccc2oc(-c3ccncc3)nc2c1 (centres undefined)
[8]
  IC50: 14 nM
[6]
  IC50: 49 nM
[5]
  Ratio IC50: < 0.5

## O=C(Nc1ccc(Cl)cc1)C(Oc1cccc2ccccc12)c1ccccc1 (centres undefined)
[8]
  IC50: 2400 nM
[6]
  IC50: > 5000 nM
[5]
  Ratio IC50: < 0.5

## C[C@H](Oc1cccc(Cl)c1Cl)C(=O)Nc1ccc2nc(-c3ccncc3)oc2c1
[8]
  IC50: 10 nM
[5]
  Ratio IC50: < 0.5

## C/C(=N\O)c1cccc(C(C)(C)NC(=O)Nc2ccc(Cl)c(C(=O)N3CCOCC3)c2)c1
[11]
  MIC: 3.8 µM (≈ 1.74 µg/mL)
[12]
  MIC: 7.5 µM
[13]
  MIC: 2 µM (≈ 0.918 µg/mL)
[14]
  MIC: > 30 µM
[15]
  MIC: > 30 µM
[17]
  Ratio: 8
[18]
  Ratio: 8
[19]
  Ratio: 8

## C[C@@H](Oc1cccc2cnccc12)c1cn(-c2ccc(Cl)cc2)nn1
[9]
  MIC: 2 µM (≈ 0.702 µg/mL)
[10]
  MIC: > 30 µM
[11]
  MIC: 7.5 µM (≈ 2.63 µg/mL)
[12]
  MIC: > 30 µM
[13]
  MIC: 8 µM (≈ 2.81 µg/mL)
[14]
  MIC: > 30 µM
[15]
  MIC: 3.8 µM (≈ 1.33 µg/mL)
[16]
  Ratio: 8
[17]
  Ratio: 8
[18]
  Ratio: 8
[19]
  Ratio: 8

## C[C@H](Oc1cccc(Cl)c1Cl)C(=O)Nc1ccc2oc(-c3ccncc3)nc2c1
[8]
  IC50: 10 nM
[5]
  Ratio IC50: < 0.5

## O=C(Cn1c(-c2ccccn2)nc2ccccc21)Nc1ccc2ccccc2c1
[1]
  Ki: 820 nM
[2]
  Ki: 13 nM
[7]
  Ki: 14 nM
[4]
  Ki: 44 nM

## C/C(=N\O)c1cccc(C(C)(C)NC(=O)Nc2ccc(Cl)c(Cl)c2)c1
[8]
  IC50: 95 nM
[6]
  IC50: 190 nM
[5]
  Ratio IC50: < 0.5

From ChEMBL document CHEMBL3351409, “Repurposing cryptosporidium inosine 5'-monophosphate dehydrogenase inhibitors as potential antibacterial agents” (ACS Med Chem Lett, 2014)
